Results on ten molecules are retold here after patent publication US20100136537A1, “PHOTORECEPTOR PRECURSOR CELLS” (THE REGENTS OF THE UNIVERSITY OF MICHIGAN, priority 2006, published 2010).

The target in one experiment is T1, mGluR8 (Mus musculus, UniProt P47743).
T1 construct: from tissue; host or cells: whole-mount mouse neural retina; integrated Nrl.gfp-positive donor rods and recipient photoreceptors
Kind of experiment: Calcium imaging (Fura Red) of whole-mount transplanted retinas, mGluR8 stimulation. The following applies: for changes in intracellular calcium ([Ca2+]i) on agonist application: recipient and Nrl.gfp-positive integrated rod cells, DCPG 20 μM in bath. The class given is cell-based. The method, then: (§1) Calcium Imaging. Retinas transplanted with Nrl.gfp^+/+ P1 cells were dissected free of all surrounding tissue. Whole-mount neural retinas were loaded with Fura Red-AM (15 μM, Molecular Probes) and the dispersant Cremophor-EL (0.03%, Sigma) for 1.5 hrs at 36° C. and then de-esterified in fresh DMEM-F12 (without phenol red) for 30 mins at 36° C. Retinas were transferred to the stage of an inverted microscope (SP2, Leica, UK) and held flat under a nylon-strung platinum wire ‘harp’. XY images were taken through the cell bodies in the inner region of the ONL, nearest the outer plexiform layer, where rod (as opposed to cone, which lie at the outer edge of the ONL) photoreceptor nuclei reside. Images were acquired at 3 sec intervals and analysed off-line. Cells were selected at random and the mean fluorescence of individual cells was calculated and normalised against the fluorescence at time 0s. Drugs were applied by micro-pipette injection into the bathing solution.
(§2) Drugs. DCPG ((S)-3,4-dicarboxyphenylglycine) (20 μM; final concentration in bath), CPPG ((RS)-alpha-cyclopropyl-4-phosphonophenylglycine) (100 μM) and NMDA (N-methyl-D-aspartate) (200 μM) were supplied by Tocris (UK).
(A change in cytosolic calcium serves as a functional read-out for many receptors and channels.)

The subject of the next experiment is NRL. Kind of experiment: NRL expression in serum-starved Y79 cells (immunoblot, Northern blot). It counts as cell-based, human. To be noted: for NRL expression (immunoblot): 24 h incubation. As for the experimental part:
Cell Culture. Y79 human retinoblastoma cells (ATCC HTB 18) and HEK293 (ATCC CRL-1573) were maintained in RPMI 1640 and Dulbecco's modified Eagle's medium, respectively, under standard conditions with 15% (v/v) fetal bovine serum (FBS), penicillin G (100 units/ml), and streptomycin (100 μg/ml) at 37° C. and 5% CO2. For serum starvation and RA treatment experiments, Y79 cells (5×10^4) were cultured in the presence or absence of the serum (same batch of serum was used in all the experiments), at RA, 9-cis-RA, cycloheximide (CHX), and 4-(E-2-(5,6,7,8-tetrahydro-5,5,8,8-tetramethyl-2-naphthalenl)-1-propenyl) benzoic acid (TTNPB) at indicated concentrations. Me2SO or ethanol was added to Y79 cells in lieu of the soluble factors as negative control.
For protein synthesis inhibition experiments, Y79 cells were serum-starved for 24 h, and then simultaneously treated with RA and CHX for 8 or 24 h. NRL expression was analyzed by immunoblotting. In another set of experiments, serum-starved Y79 cells were first incubated with RA alone for 8 or 24 h and then CHX was added. Cell extracts were then analyzed 24 h later for examining NRL expression by immunoblotting.
Protein Expression Analysis.
For orientation: In western blotting, separated proteins are transferred to a membrane and probed.

The subject of another experiment is NMDA receptor. As to the kind of experiment: Calcium imaging (Fura Red) of whole-mount transplanted retinas, NMDA receptor agonist. It counts as cell-based, mouse. To be noted: NMDA 200 μM; photoreceptors. As for the experimental part:
as §1, §2

The target in experiment [1] is T2, CEP290 (wild-type mouse centrosomal protein CEP290, endogenous, retina) (mouse, UniProt Q6A078 1-2472).
T2 construct: range 1-2472; Endogenous protein in retinal extracts; alternatively spliced lower-mass isoforms are also mentioned; also called WT protein; full-length CEP290
T2 sequence (Q6A078 whole entry, canonical isoform): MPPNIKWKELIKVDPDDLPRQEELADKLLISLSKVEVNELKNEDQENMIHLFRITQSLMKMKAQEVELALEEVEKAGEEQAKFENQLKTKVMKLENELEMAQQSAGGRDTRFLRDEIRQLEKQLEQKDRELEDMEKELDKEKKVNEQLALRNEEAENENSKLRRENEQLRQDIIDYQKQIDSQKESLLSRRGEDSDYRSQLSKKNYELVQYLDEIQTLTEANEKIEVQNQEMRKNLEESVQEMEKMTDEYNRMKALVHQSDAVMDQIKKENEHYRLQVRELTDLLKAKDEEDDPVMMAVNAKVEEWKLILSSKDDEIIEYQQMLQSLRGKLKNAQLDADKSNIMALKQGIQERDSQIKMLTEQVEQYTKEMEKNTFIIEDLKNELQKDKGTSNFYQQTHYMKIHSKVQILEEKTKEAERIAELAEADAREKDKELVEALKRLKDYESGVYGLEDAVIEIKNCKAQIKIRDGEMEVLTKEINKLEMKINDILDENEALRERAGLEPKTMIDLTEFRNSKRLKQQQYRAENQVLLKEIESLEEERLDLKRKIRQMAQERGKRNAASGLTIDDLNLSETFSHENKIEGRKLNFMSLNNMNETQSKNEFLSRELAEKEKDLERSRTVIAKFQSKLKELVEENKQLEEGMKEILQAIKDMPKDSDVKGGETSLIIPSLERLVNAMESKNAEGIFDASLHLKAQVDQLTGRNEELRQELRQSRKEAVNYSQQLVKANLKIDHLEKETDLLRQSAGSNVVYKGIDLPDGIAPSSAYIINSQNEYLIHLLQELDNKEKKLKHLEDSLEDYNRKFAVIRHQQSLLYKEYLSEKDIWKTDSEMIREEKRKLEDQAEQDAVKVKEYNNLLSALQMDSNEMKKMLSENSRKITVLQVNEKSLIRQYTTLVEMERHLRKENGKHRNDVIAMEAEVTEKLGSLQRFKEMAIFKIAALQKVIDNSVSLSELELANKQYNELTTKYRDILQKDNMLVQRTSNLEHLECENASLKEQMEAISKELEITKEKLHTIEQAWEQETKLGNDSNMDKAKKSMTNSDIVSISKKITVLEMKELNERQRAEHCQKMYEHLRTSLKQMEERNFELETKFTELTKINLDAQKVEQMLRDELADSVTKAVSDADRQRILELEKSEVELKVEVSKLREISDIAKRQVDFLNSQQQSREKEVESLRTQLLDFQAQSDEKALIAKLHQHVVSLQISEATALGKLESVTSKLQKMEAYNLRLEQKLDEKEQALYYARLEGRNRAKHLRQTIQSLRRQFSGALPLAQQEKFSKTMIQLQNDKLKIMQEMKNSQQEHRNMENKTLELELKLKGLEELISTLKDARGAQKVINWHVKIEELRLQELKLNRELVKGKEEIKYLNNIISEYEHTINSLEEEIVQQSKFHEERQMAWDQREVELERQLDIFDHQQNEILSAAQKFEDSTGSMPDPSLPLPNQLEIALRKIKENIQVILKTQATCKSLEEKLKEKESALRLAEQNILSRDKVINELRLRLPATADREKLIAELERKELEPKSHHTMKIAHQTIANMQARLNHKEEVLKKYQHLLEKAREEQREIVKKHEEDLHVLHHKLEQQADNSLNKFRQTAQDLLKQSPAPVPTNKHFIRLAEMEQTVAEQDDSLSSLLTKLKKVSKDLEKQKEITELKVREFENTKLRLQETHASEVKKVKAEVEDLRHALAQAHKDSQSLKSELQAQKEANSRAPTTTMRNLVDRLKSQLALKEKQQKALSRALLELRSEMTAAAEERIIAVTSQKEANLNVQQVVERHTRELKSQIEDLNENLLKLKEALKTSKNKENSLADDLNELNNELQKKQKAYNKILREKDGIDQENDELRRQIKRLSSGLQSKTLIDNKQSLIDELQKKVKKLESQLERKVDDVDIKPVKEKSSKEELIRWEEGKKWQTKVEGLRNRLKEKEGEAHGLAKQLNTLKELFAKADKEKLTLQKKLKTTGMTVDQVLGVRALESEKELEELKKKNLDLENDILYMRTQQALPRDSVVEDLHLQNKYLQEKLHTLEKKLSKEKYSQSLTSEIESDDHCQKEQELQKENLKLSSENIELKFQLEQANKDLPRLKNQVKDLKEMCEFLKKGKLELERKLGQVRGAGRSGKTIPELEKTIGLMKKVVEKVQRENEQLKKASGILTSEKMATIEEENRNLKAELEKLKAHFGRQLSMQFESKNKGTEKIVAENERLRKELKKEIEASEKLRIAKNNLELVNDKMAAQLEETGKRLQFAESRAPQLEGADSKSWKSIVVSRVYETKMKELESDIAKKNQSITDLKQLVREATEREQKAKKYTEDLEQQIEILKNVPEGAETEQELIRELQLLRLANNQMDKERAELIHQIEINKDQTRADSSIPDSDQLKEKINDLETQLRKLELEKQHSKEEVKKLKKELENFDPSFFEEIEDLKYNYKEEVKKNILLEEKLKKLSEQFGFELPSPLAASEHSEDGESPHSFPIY
Kind of experiment: co-immunoprecipitation from retinal extracts, immunoblot.

In experiment [2] the target is ΔCEP290 (truncated CEP290 of the rd16 mouse, in-frame deletion of amino acid residues 1599-1897) (mouse) (UniProt Q6A078). As to the kind of experiment: co-immunoprecipitation with ORF15^CP antibody from rd16 vs WT retinal extract, immunoblot for CEP290.

T1 sequence (P47743 34-908): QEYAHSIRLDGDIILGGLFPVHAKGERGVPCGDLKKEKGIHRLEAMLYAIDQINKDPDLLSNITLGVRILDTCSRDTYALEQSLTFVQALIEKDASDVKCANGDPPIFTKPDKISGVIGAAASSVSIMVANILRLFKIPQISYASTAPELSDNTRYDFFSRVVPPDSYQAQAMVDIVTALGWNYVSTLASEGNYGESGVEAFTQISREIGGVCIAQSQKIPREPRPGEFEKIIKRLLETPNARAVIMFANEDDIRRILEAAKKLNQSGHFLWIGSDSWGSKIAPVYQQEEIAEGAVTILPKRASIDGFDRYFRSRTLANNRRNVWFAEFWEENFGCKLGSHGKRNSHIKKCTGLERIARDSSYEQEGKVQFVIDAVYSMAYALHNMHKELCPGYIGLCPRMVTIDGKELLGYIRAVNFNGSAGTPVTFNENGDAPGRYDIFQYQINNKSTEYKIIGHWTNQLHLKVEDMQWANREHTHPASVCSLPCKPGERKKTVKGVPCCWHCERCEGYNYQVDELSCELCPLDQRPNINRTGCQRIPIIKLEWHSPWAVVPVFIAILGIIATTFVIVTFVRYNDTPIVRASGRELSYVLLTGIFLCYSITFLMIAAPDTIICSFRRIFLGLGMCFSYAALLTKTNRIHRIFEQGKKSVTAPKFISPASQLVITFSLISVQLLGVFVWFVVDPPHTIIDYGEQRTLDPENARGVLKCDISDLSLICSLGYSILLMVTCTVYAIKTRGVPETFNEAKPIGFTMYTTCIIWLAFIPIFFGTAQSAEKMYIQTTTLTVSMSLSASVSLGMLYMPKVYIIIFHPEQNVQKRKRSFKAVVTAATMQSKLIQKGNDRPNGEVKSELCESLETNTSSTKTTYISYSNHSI

For `NC(C(=O)O)(c1ccc(P(=O)(O)O)cc1)C1CC1` (racemic) [CPPG, (RS)-alpha-cyclopropyl-4-phosphonophenylglycine], the “block of the mGluR8 agonist-evoked [Ca2+]i change” value at mGluR8 (CPPG 100 μM) was “can be blocked”. For the molecule `CC1=C(/C=C/C(C)=C\C=C\C(C)=C\C(=O)O)C(C)(C)CCC1` [9-cis RA, 9-cis-RA], the “NRL expression (immunoblot)” value in the experiment with NRL (serum-starved Y79 cells) is “dose-dependent increase in NRL expression”.

In the case of `C[C@@H]1C[C@@H]([C@H](O)CC2CC(=O)NC(=O)C2)C(=O)[C@@H](C)C1` [CHX, cycloheximide], the “effect on RA-mediated NRL induction, added simultaneously with RA” value in the experiment with NRL (CHX 20 μg/ml with at RA, serum-starved Y79 cells) is on record as “blocked NRL induction”. Moreover, the “effect on NRL expression, added after RA pretreatment” value in the experiment with NRL (cells pretreated with RA for 8 or 24 h, then CHX) is on record as “no detectable effect on NRL expression”. Regarding `N[C@H](C(=O)O)c1ccc(C(=O)O)c(C(=O)O)c1` [DCPG, (S)-3,4-dicarboxyphenylglycine], the “changes in intracellular calcium ([Ca2+]i) on agonist application” value at mGluR8 is “consistently evoked changes in ([Ca^2+]i)”. In the case of `CN[C@H](CC(=O)O)C(=O)O` [NMDA, N-methyl-D-aspartate], in the experiment on NMDA receptor, the “effect of NMDA receptor agonist on [Ca2+]i” value was “showed no effect”. Consider `C/C(=C\c1ccc(C(=O)O)cc1)c1ccc2c(c1)C(C)(C)CCC2(C)C` [TTNPB, 4-(E-2-(5,6,7,8-tetrahydro-5,5,8,8-tetramethyl-2-naphthalenl)-1-propenyl) benzoic acid], for which the “NRL expression (immunoblot)” value with NRL (serum-starved Y79 cells) is recorded as “mimicked”. On to `N[C@@H](CCC(=O)O)C(=O)O` [glutamate], for which the “changes in intracellular calcium ([Ca2+]i) on agonist application” value at mGluR8 was “consistently evoked changes in ([Ca^2+]i)”.

B1: Nephrocystin-5 (NPHP5) (other, mouse, UniProt Q8BP00 1-598, looked up)
chain: MKPAGTDPRILSLAAEVAKSPEQNVPVILLKLKEIINNTPLGSSELKKVKQDIYCYDLIQYCLLVLSQDSSRIQGGWSTISQLTQILSHCCVGLEPGEDGEEFYKELLPSAAENFLILGRRLQTCFINATKGEEQDKLLHFFQIVTDSLFWLLGGHVQLIQNVLQSDHFLHLLQTDNVQIGASVMTLLQNILQINSGNLLKIEGKALHSILDEILFKLLSTPSPVIRSTATKLLLVLAESHQEILILLRLSACYKGLRSLLNKQETLTEFSRELRQLVDLLTPKIHQEVEEQKLHKAACLIQAYWKGFQTRKRLKKLPSAVIALQRSFRSKRTKMMLELNRQKEEEDLRLKLQLQRQRAMRLSRESRLNMLEIIHPGQVEKYNREMEEKSALTIQKHWRGYRERKNFRQQRPSLTEYKAAVTLQRAVLKFLAKCRKKKKLFASWHGLQELTDARRVELKQQVDDYVKRHPCSQMSEAASRELHAQAQERLQHYFMGRAIEERAQQHREALMAQISTNIEQLMKAPSLKEAEGKEPEQFLSRSRPVAAKAKQAHLTTLKHIQAPWWKKLGEEPGDEVDVPKDELSIDLGMLFIGGTKPP
Take B1: the binding result in experiment [1] was “no binding”.

B2: RPGR-ORF15 (retina-enriched RPGR-ORF15 isoform(s)) (protein, mouse, UniProt Q9R0X5-5 1-1305, looked up)
chain: MAESESLVPDTGAVFTFGKTKFAENIPSKFWFKNDIPICLSCGDEHTAIVTGNNKLYMFGSNNWGQLGLGSKAAIIKPTCIKALKPEKVKLAACGRNHTLVSTDTGGVYAAGGNNEGQLGLGDTDDRDTFHQIVFFTPADTIKQLSAGANTSAALTEDGKLFMWGDNSEGQIGLEDKSNVCIPHEVTVGKPISWISCGYYHSAFVTMDGELYTFGEPENGKLGLPNELLMNHRSPQRVLGIPERVIQVACGGGHTVVLTEKVVYAFGLGQFGQLGLGTFLFETSEPKIIERIKDQKICHISCGENHTALMTELGLLYTFGDGRHGKLGLGMENFTNQFFPTLCSNFLRFAVQLIACGGCHMLVFATPRLGTIDEPKFEDVYEPYISTGSFSINDLSPRSSLNRSLSARLRRRERERPPCSASMVGTLPPLEGTSASTSAYFYPSSPPFHLSVNNYPEKSPSESMEPLDSDYFEDKMNKDTETENSSAVDSENFGETNDILNMTHMMTTSSNEKLLDFSPIQKQQNQDTFEKVMESTPCTENEDSYEYEEMSKIKEVTVYKQYLAKGIYMIRPAEILEAFSDEEVGNGLDQVEEPRVFTDGKGLQSKQVGKESDEEIVSEKKTEVMEVADVKKIRESEENSKSDSLFDDLPDKTMNSESEDNKDIAEERRSSEQNMTFDSETELVEEPDSYMECERHSEQDSAEELEQPKLVEYSSEEKDEKDEKDDDEVETENLWYDRNCTEQETENVFRATRFFPKFDLKHDHLSGIPEEQEGPEDSEGNVVVEQVVQAQKENLEFEGDRKEAKAEAPSDVITEKEVSESERESGGEREDRSEGDGDQICEKVSLETEHLQRAQGKQERKKGKDKRARCILDMKEREEDKGWEKGSEGGDKMKRDEGNQEKRKKEMEERDAGDERSEEEEGEEEEPEEGEKEEGGEEEEGTSEDQSREDEGDRQEKEGRREGKGRQEDGREGWKEGEEQEQEEEIEEGEEEEREGEEEGGEEEGEGEGEREEEGEGEEEGEGEEEGEGEEEGEGEEEGEGEEEGEGEEEGEGEEEGEGEEDGEGEEDGEGEEEGEGEEEGEREEDGEGEEDGEGEEEGEGEEEGEGEEEGEGEEEGEGEGEEEGEGEWEGEEEGEGEEEGEGEEEGEGEEEGEGEEEGEGEEEGGEDDEGEELEKKKGDITEEEEEEEEGQEGDEREREEHGSCEDDVEEDKTYDREEGEYKKAIGKVADNESQEDRKQSPKVSKINGSMKYGRHGTYSEKPITNLGKTQPSKMPMESRQLVENGLLGSERFWSDVLPLYLELK
Turning to B2, the fold higher level co-immunoprecipitated compared with the WT protein in experiment [2] was determined as 50 times.

B3: nucleophosmin (NPM) (other, mouse, UniProt Q61937 1-292, looked up)
chain: MEDSMDMDMSPLRPQNYLFGCELKADKDYHFKVDNDENEHQLSLRTVSLGAGAKDELHIVEAEAMNYEGSPIKVTLATLKMSVQPTVSLGGFEITPPVVLRLKCGSGPVHISGQHLVAVEEDAESEDEDEEDVKLLGMSGKRSAPGGGNKVPQKKVKLDEDDEDDDEDDEDDEDDDDDDFDEEETEEKVPVKKSVRDTPAKNAQKSNQNGKDLKPSTPRSKGQESFKKQEKTPKTPKGPSSVEDIKAKMQASIEKGGSLPKVEAKFINYVKNCFRMTDQEAIQDLWQWRKSL
Consider B3, for which the binding result in experiment [1] is listed as “no binding”.
